# Source: patent publication US12410152B2, “Oxazole and thioazole-type cullin ring ubiquitin ligase compounds and uses thereof” (Proxygen GmbH, priority 2019, dated 2025)
# System: KBM7 WT cells (global proteome)
# Test: Quantitative expression proteomics (TMT isobaric tagging), drug vs DMSO
# Type: cell-based, human
# Description: The mechanism by which the assayed molecules re-program a functional CRL4B complex based on the data shown could be that drug binding to CUL4B recruits a neo-substrate directly to the cullin backbone. Alternatively, drug binding could stabilize CUL4B function to boost time intervals where a functionally competent CUL4B complexes can be formed. Here, the word “functional” implies that the CUL4B backbone of this complex needs to be neddylated, and a CUL4B associated E2 ubiquitin-conjugating enzyme (UBE2G1) needs to be bound. FIG. 9 outlines one possible mechanism. Both predicted mechanisms of action would result in a functionally altered CRL4B complex, and thus an altered stability of drug-induced (neo-) substrates. In order to identify target proteins with a decreased abundance or, in other words, target proteins that become degraded by CRL4B after drug treatment, global proteome composition was measured using quantitative expression proteomics (TMT-labeling). In brief, KBM7 cells were drug treated for 12 hours, lysed, and subjected to isobaric tagging. Ensuing proteomics analysis quantified a total of 7,903 proteins at a minimum spectral count of 2. […] Data on essentiality are taken from Hart et al., G3, August 2017 (PMID: 28655737).
# 50×10^6 KBM7^WT cells per condition were collected, washed four times with ice-cold PBS, the supernatant aspirated and pellets snap-frozen in liquid N2. Each washed cell pellet was lysed separately in 40 μL of freshly prepared lysis buffer as previously described (see Mayor-Ruiz et al., Mol Cell 2019)
# Offline Fractionation via RP-HPLC at high pH and 2D-RP/RP Liquid Chromatography Mass Spectrometry were performed as previously described (see Mayor-Ruiz et al., Mol Cell 2019).
# Acquired raw data files were processed using the Proteome Discoverer 2.2.0 platform, utilizing the Sequest HT database search engine and Percolator validation software node (V3.04) to remove false positives with a false discovery rate (FDR) of 1% on peptide and protein level under strict conditions. Searches were performed with full tryptic digestion against the human SwissProt database v2017.06 with up to two allowed miscleavage sites. Oxidation (+15.9949 Da) of methionine was set as variable modification, whilst carbamidomethylation (+57.0214 Da) of cysteine residues and TMT 6-plex labelling of peptide N-termini and lysine residues were set as fixed modifications. Data was searched with mass tolerances of ±10 ppm and ±0.02 Da on the precursor and fragment ions, respectively. Results were filtered to include peptide spectrum matches (PSMs) with Sequest HT cross-correlation factor (Xcorr) scores of […] and high peptide confidence assigned by Percolator. MS^2 signal-to-noise values (S/N) values of TMT reporter ions were used to estimate peptide/protein abundance changes. PSMs with precursor isolation interference values of ≥ 50% and average TMT-reporter ion S/N≤10 were excluded from quantitation. Only unique peptides were used for TMT quantitation as well as for TOP3 label-free quantitation. Isotopic impurity correction and TMT channel-normalization based on total peptide amount were applied. For statistical analysis and p-value calculation, the integrated ANOVA hypothesis test was used. TMT ratios with p-values below 0.01 were considered as significant. Only proteins with >1 peptide detected and >1 unique peptide detected were considered for further analysis. For the calling of destabilized proteins, a log 2 fold change threshold (drug/DMSO) of −0.3 was applied.
# Comparison of overall proteome-wide changes in KBM7 cells treated with IC020772.1 (2.5 μM), IC021313.2 (7 μM) or T6938051 (3.5 μM) for 5 h and 12h, using quantitative proteomics based on isobaric tagging.
# The protein names in Table 4, Table 5 and Table 6 refer to the protein names as provided by HUGO Gene Nomenclature Committee (HGNC) database. […]
smiles,measurement,setting,value
O=C(CSc1nnc2c(n1)[nH]c1ccccc12)Nc1ccc(Cl)cn1 [IC020772.1],number of downregulated proteins known to be implicated in KBM7 proliferation (essential for KBM7 viability),"KBM7 cells, 12 hours, essentiality from Hart et al. 2017",147
same,log2FC (IC020772.1/DMSO),KBTBD7 (Q8WVZ9),−0.5353
same,log2FC (IC020772.1/DMSO),LIMD2 (Q9BT23),−0.6282
same,log2FC (IC020772.1/DMSO),MTR (Q99707-1),−0.5395
same,log2FC (IC020772.1/DMSO),NARF (Q9UHQ1-2),−0.488
same,log2FC (IC020772.1/DMSO),NCR3LG1 (Q68D85),−0.488
same,log2FC (IC020772.1/DMSO),NDC80 (O14777),−0.5585
same,log2FC (IC020772.1/DMSO),NKAPD1 (Q6ZUT1-2),−0.488
same,log2FC (IC020772.1/DMSO),NKIRAS1 (Q9NYS0),−0.5374
same,log2FC (IC020772.1/DMSO),NLK (Q9UBE8),−0.4982
same,log2FC (IC020772.1/DMSO),NPAT (Q14207),−0.6439
same,log2FC (IC020772.1/DMSO),NUF2 (Q9BZD4),−0.6282
same,log2FC (IC020772.1/DMSO),NXF3 (Q9H4D5-1),−0.5628
same,log2FC (IC020772.1/DMSO),PCLAF (Q15004-1),−1.248
same,log2FC (IC020772.1/DMSO),PDCD2 (Q16342-1),−0.5585
same,log2FC (IC020772.1/DMSO),PEX19 (P40855-1),−0.488
same,log2FC (IC020772.1/DMSO),PHF8 (Q9UPP1-4),−0.4961
same,log2FC (IC020772.1/DMSO),PIAS4 (Q8N2W9),−0.4901
same,log2FC (IC020772.1/DMSO),PIBF1 (Q8WXW3-1),−0.5002
same,log2FC (IC020772.1/DMSO),PIP5K1A (Q99755-3),−0.5479
same,log2FC (IC020772.1/DMSO),PRR14L (Q5THK1-1),−0.5458
same,log2FC (IC020772.1/DMSO),PUM2 (Q8TB72-1),−0.5585
same,log2FC (IC020772.1/DMSO),RELT (Q969Z4),−0.4901
same,log2FC (IC020772.1/DMSO),RIOK2 (Q9BVS4-1),−0.6394
same,log2FC (IC020772.1/DMSO),RLIM (Q9NVW2-1),−0.5458
same,log2FC (IC020772.1/DMSO),RNF149 (Q8NC42),−0.55
same,log2FC (IC020772.1/DMSO),RNF219 (Q5W0B1),−0.6506
same,log2FC (IC020772.1/DMSO),RTEL1 (Q9NZ71-2),−0.5395
same,log2FC (IC020772.1/DMSO),SCAND1 (P57086),−1.377
same,log2FC (IC020772.1/DMSO),SCARF1 (Q14162-1),−1.297
same,log2FC (IC020772.1/DMSO),SDHAF3 (Q9NRP4),−0.6349
same,log2FC (IC020772.1/DMSO),SIK2 (Q9H0K1),−0.4961
same,log2FC (IC020772.1/DMSO),SLC19A1 (P41440-1),−0.6326
same,log2FC (IC020772.1/DMSO),SLCO4A1 (Q96BD0-1),−0.5043
same,log2FC (IC020772.1/DMSO),SNAP29 (O95721),−0.6282
same,log2FC (IC020772.1/DMSO),SPHK2 (Q9NRA0-5),−0.6439
same,log2FC (IC020772.1/DMSO),STXBP4 (Q6ZWJ1-1),−0.5043
same,log2FC (IC020772.1/DMSO),TFAP4 (Q01664),−0.5585
same,log2FC (IC020772.1/DMSO),TMED1 (Q13445),−0.5395
same,log2FC (IC020772.1/DMSO),TMEM126B (Q8IUX1-1),−0.4961
same,log2FC (IC020772.1/DMSO),TPK1 (Q9H3S4-1),−0.5543
same,log2FC (IC020772.1/DMSO),TPT1 (P13693-1),−0.4982
same,log2FC (IC020772.1/DMSO),TRMT44 (Q8IYL2-1),−0.5416
same,log2FC (IC020772.1/DMSO),TRUB2 (O95900-1),−0.6371
same,log2FC (IC020772.1/DMSO),TTC21B (Q7Z4L5-1),−0.4901
same,log2FC (IC020772.1/DMSO),UBE2A (P49459-1),−0.4921
same,log2FC (IC020772.1/DMSO),UBE2J2 (Q8N2K1-3),−0.55
same,log2FC (IC020772.1/DMSO),UBL5 (Q9BZL1),−0.5522
same,log2FC (IC020772.1/DMSO),UBXN2B (Q14CS0),−0.5374
same,log2FC (IC020772.1/DMSO),USP38 (Q8NB14-1),−0.4941
same,log2FC (IC020772.1/DMSO),ZFAND3 (Q9H8U3),−0.5543
same,log2FC (IC020772.1/DMSO),ZNF182 (P17025-1),−0.6529
